{
  "source": "patent US6512000B1",
  "about": "“Aminocarbonyl-substituted benzimidazoles having tryptase-inhibitory activity” (Boehringer Ingelheim Pharma KG, priority 1999, dated 2003)",
  "note": "pIC50: −log10 of the molar value. Where a name gives a salt, the structure may show the parent alone.",
  "data": [
    {"molecular_target": "T1, rh beta tryptase (Homo sapiens, UniProt P20231)", "T1 construct": "purchased Promega", "T1 sequence (P20231 31-275)": "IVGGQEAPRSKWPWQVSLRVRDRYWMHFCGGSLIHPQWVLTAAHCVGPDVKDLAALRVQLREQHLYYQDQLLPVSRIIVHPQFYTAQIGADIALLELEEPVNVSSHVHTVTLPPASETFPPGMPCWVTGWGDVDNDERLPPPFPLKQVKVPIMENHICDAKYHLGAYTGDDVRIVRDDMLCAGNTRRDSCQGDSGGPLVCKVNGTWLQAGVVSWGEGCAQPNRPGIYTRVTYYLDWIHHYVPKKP", "test": "Tryptase inhibition test (cleavage of N-p-tosyl-Gly-Pro-Lys-para-nitroaniline, p-nitroaniline measured at 405 nm)", "type": "biochemical", "details": "concentration at which 50% of the tryptase enzyme activity is inhibited; substrate 0.6 mM, pH 7.4, 37° C.", "summary_of_the_method": "(§1)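 Screening at 10 μM gives percent inhibition, with IC50 derived for compounds above 70% inhibition. Enzyme: rh beta tryptase, 0.91 U/ml, pH 7.4 Tris HCl (100 mM), 5 mM Ca, 100 mg/ml heparin. After 5 min compound pre-incubation, 0.6 mM pNA substrate cleaved 5 min at 37 °C, monitored at 405 nm.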", "values": [
      {"smiles": "CCOCCCn1c(CCc2ccc(C(=N)N)cc2)nc2cc(C(=O)N(CCN)Cc3cccc(C(F)(F)F)c3)ccc21", "note": "[Example 390, 2-[2-(4-amidinophenyl)ethyl]-1-(3-ethoxypropyl)-benzimidazol-5-yl-carboxylic acid-N-(2-aminoethyl)-N-(3-trifluoromethylbenzyl)-amide]", "pIC50": 6.40},
      {"smiles": "CCOCCCn1c(CCc2ccc(C(=N)N)cc2)nc2cc(C(=O)N(CCN)Cc3ccccc3F)ccc21", "note": "[Example 406, 2-[2-(4-amidinophenyl)ethyl]-1-(3-ethoxypropyl)-benzimidazol-5-yl-carboxylic acid-N-(2-aminoethyl)-N-(2-fluorobenzyl)-amide]", "pIC50": 6.41},
      {"smiles": "N=C(N)c1ccc(CCc2nc3cc(C(=O)N(CCN)Cc4ccccc4F)ccc3n2CC2CC2)cc1", "note": "[Example 410, 2-[2-(4-amidinophenyl)ethyl]-1-cyclopropylmethyl-benzimidazol-5-yl-carboxylic acid-N-(2-aminoethyl)-N-(2-fluorobenzyl)-amide]", "pIC50": 6.20},
      {"smiles": "CCOCCCn1c(CCc2ccc(C(=N)N)cc2)nc2cc(C(=O)N(CCN)Cc3ccc4ccccc4c3)ccc21", "note": "[Example 422, 2-[2-(4-amidinophenyl)ethyl]-1-(3-ethoxypropyl)-benzimidazol-5-yl-carboxyiic acid-N-(2-aminoethyl)-N-(2-naphthylmethyl)-amide]", "pIC50": 6.44}
    ]},
    {"molecular_target": "T1, rh beta tryptase", "test": "Tryptase inhibition test (cleavage of N-p-tosyl-Gly-Pro-Lys-para-nitroaniline, p-nitroaniline measured at 405 nm)", "type": "biochemical", "details": "inhibition of rh beta tryptase at 10 μM test substance; substrate N-p-tosyl-Gly-Pro-Lys-para-nitroaniline 0.6 mM, pH 7.4, 37° C., 5 minutes", "summary_of_the_method": "as §1", "units": {"% Inhibition (10 μM)": "%", "inhibition at 10 µM": "%"}, "values": [
      {"smiles": "N=C(N)c1ccc(CCc2nc3cc(C(=O)N(CCN)Cc4ccc(Cl)cc4)ccc3n2CC2CC2)cc1", "note": "[Example 378, 2-[2-(4-amidinophenyl)ethyl]-1-cyclopropylmethyl-benzimidazol-5-yl-carboxylic acid-N-(2-aminoethyl)-N-(4-chlorbenzyl)-amide]", "% Inhibition (10 μM)": 52},
      {"smiles": "Cc1ccccc1N1CCN(CCCn2c(CCc3ccc(C(=N)N)cc3)nc3cc(C(=O)N(CCN)Cc4ccc(Cl)cc4)ccc32)CC1", "note": "[Example 384, 2-[2-(4-amidinophenyl)ethyl]-1-{3-[4-(2-methylphenyl)-piperazin-1-yl]-propyl} -benzimidazol-5-yl-carboxylic acid-N-(2-aminoethyl)-N-(4-chlorbenzyl)-amide]", "% Inhibition (10 μM)": 59},
      {"smiles": "N=C(N)c1ccc(CCc2nc3cc(C(=O)N(CCN)Cc4ccc(Cl)cc4)ccc3n2CC2CCCO2)cc1", "note": "(stereo not drawn) [Example 386, 2-[2-(4-amidinophenyl)ethyl]-1-(tetrahydrofuran-2-yl-methyl)-benzimidazol-5-yl-carboxylic acid-N-(2-aminoethyl)-N-(4-chlorbenzyl)-amide]", "% Inhibition (10 μM)": 55},
      {"smiles": "N=C(N)c1ccc(CCc2nc3cc(C(=O)N(CCN)Cc4ccc(Cl)cc4)ccc3n2Cc2cccs2)cc1", "note": "[Example 387, 2-[2-(4-amidinophenyl)ethyl]-1-(2-thiophenyl-methyl)-benzimidazol-5-yl-carboxylic acid-N-(2-aminoethyl)-N-(4-chlorbenzyl)-amide]", "% Inhibition (10 μM)": 55},
      {"smiles": "CCOCCCn1c(CCc2ccc(C(=N)N)cc2)nc2cc(C(=O)N(CCN)Cc3cccc(C(F)(F)F)c3)ccc21", "note": "[Example 390, 2-[2-(4-amidinophenyl)ethyl]-1-(3-ethoxypropyl)-benzimidazol-5-yl-carboxylic acid-N-(2-aminoethyl)-N-(3-trifluoromethylbenzyl)-amide]", "inhibition at 10 µM": 60},
      {"smiles": "N=C(N)c1ccc(CCc2nc3cc(C(=O)N(CCN)Cc4cccc(C(F)(F)F)c4)ccc3n2CC2CC2)cc1", "note": "[Example 394, 2-[2-(4-amidinophenyl)ethyl]-1-cyclopropylmethyl-benzimidazol-5-yl-carboxyiic acid-N-(2-aminoethyl)-N-(3-trifluoromethylbenzyl)-amide]", "% Inhibition (10 μM)": 52},
      {"smiles": "Cc1ccccc1N1CCN(CCCn2c(CCc3ccc(C(=N)N)cc3)nc3cc(C(=O)N(CCN)Cc4cccc(C(F)(F)F)c4)ccc32)CC1", "note": "[Example 400, 2-[2-(4-amidinophenyl)ethyl]-1-{3-[4-(2-methylphenyl)-piperazin-1-yl]-propyl}-benzimidazol-5-yl-carboxylic acid-N-(2-aminoethyl)-N-(3-trifluoromethylbenzyl)-amide]", "inhibition at 10 µM": 52},
      {"smiles": "N=C(N)c1ccc(CCc2nc3cc(C(=O)N(CCN)Cc4cccc(C(F)(F)F)c4)ccc3n2CC2CCCO2)cc1", "note": "(stereo not drawn) [Example 402, 2-[2-(4-amidinophenyl)ethyl]-1-(tetrahydrofuran-2-yl-methyl)-benzimidazol-5-yl-carboxylic acid-N-(2-aminoethyl)-N-(3-trifluoromethylbenzyl)-amide]", "inhibition at 10 µM": 51},
      {"smiles": "CCOCCCn1c(CCc2ccc(C(=N)N)cc2)nc2cc(C(=O)N(CCN)Cc3ccccc3F)ccc21", "note": "[Example 406, 2-[2-(4-amidinophenyl)ethyl]-1-(3-ethoxypropyl)-benzimidazol-5-yl-carboxylic acid-N-(2-aminoethyl)-N-(2-fluorobenzyl)-amide]", "inhibition at 10 µM": 54},
      {"smiles": "CCOCCCn1c(CCc2ccc(C(=N)N)cc2)nc2cc(C(=O)N(CCN)Cc3ccc4ccccc4c3)ccc21", "note": "[Example 422, 2-[2-(4-amidinophenyl)ethyl]-1-(3-ethoxypropyl)-benzimidazol-5-yl-carboxyiic acid-N-(2-aminoethyl)-N-(2-naphthylmethyl)-amide]", "inhibition at 10 µM": 58},
      {"smiles": "CCOCCCn1c(CCc2ccc(C(=N)N)cc2)nc2cc(C(=O)N(Cc3ccc(CN)cc3)Cc3ccc(C(=O)OC)cc3)ccc21", "note": "[Example 438, 2-[2-(4-amidinophenyl)ethyl]-1-(3-ethoxypropyl)-benzimidazol-5-yl-carboxylic acid-N-[4-(amino-methyl)-benzyl]-N-[4-(methoxycarbonyl)-benzyl]-amide]", "inhibition at 10 µM": 59},
      {"smiles": "COC(=O)c1ccc(CN(Cc2ccc(CN)cc2)C(=O)c2ccc3c(c2)nc(CCc2ccc(C(=N)N)cc2)n3CCCNC(=O)Cc2ccccc2)cc1", "note": "[Example 440, 2-[2-(4-amidinophenyl)ethyl]-1-[3-(benzylcarbonylamino)-propyl]-benzimidazol-5-yl-carboxylic acid-N-[4-(amino-methyl)-benzyl]-N-[4-(methoxycarbonyl)-benzyl]-amide]", "inhibition at 10 µM": 64},
      {"smiles": "COC(=O)c1ccc(CN(Cc2ccc(CN)cc2)C(=O)c2ccc3c(c2)nc(CCc2ccc(C(=N)N)cc2)n3CC2CC2)cc1", "note": "[Example 442, 2-[2-(4-amidinophenyl)ethyl]-1-cyclopropylmethyl-benzimidazol-5-yl-carboxylic acid-N-[4-(amino-methyl)-benzyl]-N-[4-(methoxycarbonyl)-benzyl]-amide]", "inhibition at 10 µM": 59},
      {"smiles": "COC(=O)c1ccc(CN(Cc2ccc(CN)cc2)C(=O)c2ccc3c(c2)nc(CCc2ccc(C(=N)N)cc2)n3CCc2ccccc2)cc1", "note": "[Example 443, 2-[2-(4-amidinophenyl)ethyl]-1-(2-phenylethyl)-benzimidazol-5-yl-carboxylic acid-N-[4-(amino-methyl)-benzyl]-N-[4-(methoxycarbonyl)-benzyl]-amide]", "inhibition at 10 µM": 52},
      {"smiles": "COC(=O)c1ccc(CN(Cc2ccc(CN)cc2)C(=O)c2ccc3c(c2)nc(CCc2ccc(C(=N)N)cc2)n3CCc2ccc(Cl)cc2)cc1", "note": "[Example 444, 2-[2-(4-amidinophenyl)ethyl]-1-[2-(4-chlorophenyl)ethyl]-benzimidazol-5-yl-carboxylic acid-N-[4-(amino-methyl)-benzyl]-N-[4-(methoxycarbonyl)-benzyl]-amide]", "inhibition at 10 µM": 53},
      {"smiles": "COC(=O)c1ccc(CN(Cc2ccc(CN)cc2)C(=O)c2ccc3c(c2)nc(CCc2ccc(C(=N)N)cc2)n3Cc2ccc(C)cc2)cc1", "note": "[Example 445, 2-[2-(4-amidinophenyl)ethyl]-1-(4-methylbenzyl)-benzimidazol-5-yl-carboxylic acid-N-[4-(amino-methyl)-benzyl]-N-[4-(methoxycarbonyl)-benzyl]-amide]", "inhibition at 10 µM": 52},
      {"smiles": "COC(=O)c1ccc(CN(Cc2ccc(CN)cc2)C(=O)c2ccc3c(c2)nc(CCc2ccc(C(=N)N)cc2)n3CC2CCCO2)cc1", "note": "(stereo not drawn) [Example 450, 2-[2-(4-amidinophenyl)ethyl]-1-(tetrahydrofuran-2-yl-methyl)-benzimidazol-5-yl-carboxylic acid-N-[4-(amino-methyl)-benzyl]-N-[4-(methoxycarbonyl)-benzyl]-amide]", "inhibition at 10 µM": 72}
    ]},
    {"tested_on": "not given", "test": "not given", "details": "not given", "units": {"melting point": "°C"}, "values": [
      {"smiles": "Cl.Cl.Cl.Cn1c(CCc2ccc(CN)cc2)nc2cc(C(=O)NCCNc3ccccc3)ccc21", "melting point": "> 220"},
      {"smiles": "CCOC(=O)C(Cc1ccc(C(=N)N)cc1)N(C)C(=O)c1ccc2c(c1)nc(CCc1ccc(C(=N)N)cc1)n2C", "note": "(stereo not drawn) (as salt: formate) [Example 29, Ethyl 2-{2-[2-(4-Amidinophenyl)-ethyl]-1-methyl-benzimidazol-5-yl-carbonyl-(methylamino)}-3-(4-amidinophenyl)-propionate-formate]", "melting point": 230},
      {"smiles": "CC(=O)NCCCCC(NC(=O)c1ccc2c(c1)nc(CCc1ccc(C(=N)N)cc1)n2C)C(=O)O", "note": "(stereo not drawn) (as salt: formate) [Example 34]", "melting point": 158},
      {"smiles": "Cn1c(CCc2ccc(C(=N)N)cc2)nc2cc(C(=O)NCCC(c3ccccc3)c3ccccc3)ccc21", "note": "(as salt: hydrochloride)", "melting point": 185},
      {"smiles": "CN(Cc1cccnc1)C(=O)c1ccc2c(c1)nc(CCc1ccc(C(=N)N)cc1)n2C", "note": "(as salt: hydrochloride) [Example 1, 2-[2-(4-Amidinophenyl)ethyl]-1-methyl-benzimidazol-5-yl-carboxylic Acid-N-(pyridin-3-yl-methyl)-N-methyl-amide-hydrochloride]", "melting point": "> 220"},
      {"smiles": "CN(C)CCN(C)C(=O)c1ccc2c(c1)nc(CCc1ccc(C(=N)N)cc1)n2C", "note": "(as salt: hydrochloride) [Example 3, 2-[2-(4-Amidinophenyl)-ethyl]1l-methyl-benzimidazol-5-yl-carboxylic Acid-N-[2-(N,N-dimethylamino)-ethyl]-N-methyl-amide-dihydrochlonide]", "melting point": "> 220"},
      {"smiles": "CN(Cc1ccc(C(=N)N)cc1)C(=O)c1ccc2c(c1)nc(CCc1ccc(C(=N)N)cc1)n2C", "note": "(as salt: hydrochloride) [Example 4, 2-[2-(4-Amidinophenyl)-ethyl]-1-methyl-benzimidazol-5-yl-carboxylic Acid-N-(4-amidino-benzyl)-N-methyl-amide-trihydrochloride]", "melting point": "> 220"},
      {"smiles": "Cn1c(CCc2ccc(C(=N)N)cc2)nc2cc(C(=O)N(CCC(=N)N)Cc3cnc4ccccc4c3)ccc21", "note": "(as salt: hydrochloride) [Example 8, 2-[2-(4-Amidinophenyl)-ethyl]-1-methyl-benzimidazol-5-yl-carboxylic Acid-N-(2-amidinoethyl)-N-(quinolin-3-yl-methyl)-amide-dihydrochloride]", "melting point": "> 220"},
      {"smiles": "Cn1c(CCc2ccc(C(=N)N)cc2)nc2cc(C(=O)N(CCC(=N)N)Cc3ccccc3)ccc21", "note": "(as salt: hydrochloride) [Example 9, 2-[2-(4-Amidinophenyl)-ethyl]-1-methyl-benzimidazol-5-yl-carboxylic Acid-N-(2-amidinoethyl)-N-benzyl-amide-dihydrochloride]", "melting point": "> 220"}
    ]}
  ]
}
